# Laboratory results taken from patent US9120756B2, “Substituted phenylureas and phenylamides as vanilloid receptor ligands” (Gruenenthal GmbH, priority 2009, dated 2015).
# Legend:
# hVR1 [1] = target: T1, hVR1 (Homo sapiens (Human), UniProt Q8NER1); assay: FLIPR assay human VR1, 45° C. stimulus; format: cell-based; conditions: inhibition determined at 2.5 μM, read-out: IC50 (human being) 45° C. column: inhibition (as a percentage) @ 2.5 μM
# From the text: The agonistic or antagonistic effect of the substances to be tested on the vanilloid receptor 1 (VR1) can also be determined using the following assay. In this assay, the influx of Ca^2+ through the channel is quantified with the aid of a Ca^2+-sensitive dye (type Fluo-4, Molecular Probes Europe BV, Leiden, the Netherlands) in a fluorescent imaging plate reader (FLIPR, Molecular Devices, Sunnyvale, USA).
# Chinese hamster ovary cells (CHO K1 cells, European Collection of Cell Cultures (ECACC) United Kingdom) are stably transfected with the VR1 gene. For functional testing, these cells are plated out on poly-D-lysine-coated black 96-well plates having a clear base (BD Biosciences, Heidelberg, Germany) at a density of 25,000 cells/well. The cells are incubated overnight at 37° C. and 5% CO2 in a culture medium (Ham's F12 nutrient mixture, 10% by volume of FCS (foetal calf serum), 18 μg/ml of L-proline). The next day the cells are incubated with Fluo-4 (Fluo-4 2 μM, 0.01% by volume of Pluronic F127, Molecular Probes in HBSS (Hank's buffered saline solution), Gibco Invitrogen GmbH, Karlsruhe, Germany) for 30 minutes at 37° C. Subsequently, the plates are washed three times with HBSS buffer and after further incubation for 15 minutes at RT used for Ca^2+ measurement in a FLIPR assay. The Ca^2+-dependent fluorescence is measured before and after the addition of the substances to be tested (λex wavelength=488 nm, λem=540 nm). Quantification is carried out by measuring the highest fluorescence intensity (FC, fluorescence counts) over time.
# The FLIPR protocol consists of 2 substance additions. […]
# Desensitising agonists and antagonists led to suppression of the Ca^2+ influx.
# Ki values for the test substances were obtained by conversion by means of the Cheng-Prusoff equation (Cheng, Prusoff; Biochem. Pharmacol. 22, 3099-3108, 1973).
# hVR1 [2] = target: T1, hVR1; assay: FLIPR Ca2+ influx assay on CHO K1 cells transfected with the VR1 gene, capsaicin stimulus (method II); format: cell-based; conditions: capsaicin (Cap), read-out: Ki (human being) [nM] Cap
# T1 sequence (Q8NER1 whole entry): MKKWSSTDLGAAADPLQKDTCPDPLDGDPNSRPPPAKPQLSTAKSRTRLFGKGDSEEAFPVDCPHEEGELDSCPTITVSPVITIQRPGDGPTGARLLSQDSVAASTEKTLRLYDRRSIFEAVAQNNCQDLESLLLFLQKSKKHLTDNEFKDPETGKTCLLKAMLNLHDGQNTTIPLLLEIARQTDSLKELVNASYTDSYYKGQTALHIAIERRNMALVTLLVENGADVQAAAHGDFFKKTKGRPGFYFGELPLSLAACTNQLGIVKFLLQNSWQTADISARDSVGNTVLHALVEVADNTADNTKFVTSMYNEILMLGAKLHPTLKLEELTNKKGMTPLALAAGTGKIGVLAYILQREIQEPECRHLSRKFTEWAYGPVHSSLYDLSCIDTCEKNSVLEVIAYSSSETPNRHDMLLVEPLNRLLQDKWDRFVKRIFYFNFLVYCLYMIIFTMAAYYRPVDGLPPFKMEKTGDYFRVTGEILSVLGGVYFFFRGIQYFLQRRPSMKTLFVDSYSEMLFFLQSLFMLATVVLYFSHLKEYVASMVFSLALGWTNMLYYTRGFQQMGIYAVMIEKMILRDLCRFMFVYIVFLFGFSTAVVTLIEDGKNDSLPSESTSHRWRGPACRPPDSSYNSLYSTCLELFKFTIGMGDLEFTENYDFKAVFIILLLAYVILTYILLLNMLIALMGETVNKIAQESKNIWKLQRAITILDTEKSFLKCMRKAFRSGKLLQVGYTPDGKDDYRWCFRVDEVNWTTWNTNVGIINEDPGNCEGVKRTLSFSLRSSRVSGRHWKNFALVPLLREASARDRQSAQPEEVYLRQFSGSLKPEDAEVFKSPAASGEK
smiles,measurement,setting,value
"O=C(Cc1cccc(F)c1)NCc1cc(C(F)(F)F)nn1-c1cccc(Cl)c1 [Example 74, N-((1-(3-chlorophenyl)-3-(trifluoromethyl)-1H-pyrazol-5-yl)methyl)-2-(3-fluorophenyl)acetamide]",inhibition at 2.5 µM,hVR1 [1],12%
same,Ki,hVR1 [2],51.8 nM
